Measurements reported in patent US8614085B2, “Yeast with increased butanol tolerance involving a multidrug efflux pump gene” (Butamax(TM) Advanced Biofuels LLC, priority 2009, dated 2013).
Where two headings read alike, the source gives them in different places.

Assays:
[1] = test system: diploid parental strain BY4743; settings: YPD, 30° C., inoculum OD600 0.01, average +/- SD
[2] = test system: homozygous diploid strain containing a PDR5 deletion mutation (strain #32409, S04); experiment: Growth yield (OD600) of homozygous diploid PDR5 deletion strain in YPD medium with butanol; assay type: cell-based, Saccharomyces cerevisiae; settings: for OD600 after 23 hours incubation with 1-butanol / OD600 after 24 hours incubation with isobutanol: diploid PDR5 mutant, YPD, 30° C., inoculum OD600 0.01, average +/- SD; for growth yield of strain with the PDR5 deletion compared to BY4743: diploid
[3] = test system: haploid strain containing a PDR5 deletion mutation (strain #2409); experiment: Growth yield (OD600) of haploid PDR5 deletion strain in YPD medium with isobutanol; assay type: cell-based, Saccharomyces cerevisiae; settings: for OD600 after 24 hours incubation with isobutanol: haploid PDR5 mutant, YPD, 30° C., inoculum OD600 0.01, average +/- SD; for growth yield of strain with the PDR5 deletion compared to BY4741: haploid, 24 hours
Protocol: (§1) A haploid strain of Saccharomyces cerevisiae containing a PDR5 deletion mutation (strain #2409) was obtained from Open Biosystems (Huntsville, Ala.) The deletion strain was made as part of the Saccharomyces Genome Deletion Project described in Winzeler al. (Science, 285:901-906, (1999)). […] The inoculum OD600 was 0.01. […] Duplicate cultures of each strain were tested.

parental strain BY4741 = experiment: Growth yield (OD600) of haploid parental strain in YPD medium with isobutanol; assay type: cell-based, Saccharomyces cerevisiae; settings: 30° C., inoculum OD600 0.01, average +/- SD
Protocol: as §1

In the case of `CCCCO` [1-Butanol, 1-butanol], the “OD600 after 23 hours incubation with 1-butanol” value (shortened to “OD600 after 23 hours incubation”) ([1]; 0.625 % w/v 1-butanol) is reported as 2.38 +/− 0.25, the “OD600 after 23 hours incubation” value ([1]; 0.75 % w/v 1-butanol) is reported as 0.30 +/− 0.03 and the “OD600 after 23 hours incubation” value ([1]; 0.875 % w/v 1-butanol) is reported as 0.22 +/− 0.01. For the same molecule, the “OD600 after 23 hours incubation” value ([2]; 0.625 % w/v 1-butanol) was 3.27 +/− 0.23, the “OD600 after 23 hours incubation” value ([2]; 0.75 % w/v 1-butanol) was 0.40 +/− 0.02 and the “OD600 after 23 hours incubation” value ([2]; 0.875 % w/v 1-butanol) was 0.27 +/− 0.01. For the same molecule, the “growth yield of strain with the PDR5 deletion compared to BY4743” value (shortened to “growth yield of strain … compared to BY4743”) ([2]; 0.625% w/v 1-butanol, 23 hours) was 1.4 fold, the “growth yield of strain … compared to BY4743” value ([2]; 0.75% w/v 1-butanol, 23 hours) was 1.3 fold and the “growth yield of strain … compared to BY4743” value ([2]; 0.875% w/v 1-butanol, 23 hours) was 1.2 fold.

`CC(C)CO` [Isobutanol, isobutanol] was tested, and the “OD600 after 24 hours incubation with isobutanol” value (shortened to “OD600 after 24 hours incubation”) ([3]; 0.75 % w/v isobutanol) was 4.71 +/− 0.53, the “OD600 after 24 hours incubation” value ([3]; 0.875 % w/v isobutanol) was 2.45 +/− 0.42 and the “OD600 after 24 hours incubation” value ([3]; 1 % w/v isobutanol) was 0.76 +/− 0.13. The “growth yield of strain with the PDR5 deletion compared to BY4741” value (“growth yield of strain … compared to BY4741” below) ([3]; 0.75% w/v isobutanol) was 1.8 fold, the “growth yield of strain … compared to BY4741” value ([3]; 0.825% w/v isobutanol) was 3.5 fold and the “growth yield of strain … compared to BY4741” value ([3]; 1% w/v isobutanol) was 8 fold. The “OD600 after 24 hours incubation” value ([1]; 0.25 % w/v isobutanol) was 7.36 +/− 0.04, the “OD600 after 24 hours incubation” value ([1]; 0.5 % w/v isobutanol) was 6.62 +/− 0.24 and the “OD600 after 24 hours incubation” value ([1]; 0.75 % w/v isobutanol) was 1.84 +/− 0.36. The “OD600 after 24 hours incubation” value ([1]; 0.825 % w/v isobutanol) was 0.19 +/− 0.03, the “OD600 after 24 hours incubation” value ([1]; 1 % w/v isobutanol) was 0.08 +/− 0.01 and the “OD600 after 24 hours incubation” value (parental strain BY4741; 0.75 % w/v isobutanol) was 2.68 +/− 0.07. The “OD600 after 24 hours incubation” value (parental strain BY4741; 0.875 % w/v isobutanol) was 0.692 +/− 0.04, the “OD600 after 24 hours incubation” value (parental strain BY4741; 1 % w/v isobutanol) was 0.09 +/− 0.02 and the “OD600 after 24 hours incubation” value ([2]; 0.25 % w/v isobutanol) was 7.51 +/− 0.11. For the same molecule, the “OD600 after 24 hours incubation” value ([2]; 0.5 % w/v isobutanol) was 7.17 +/− 0.12, the “OD600 after 24 hours incubation” value ([2]; 0.75 % w/v isobutanol) was 4.91 +/− 0.29 and the “OD600 after 24 hours incubation” value ([2]; 0.825 % w/v isobutanol) was 1.67 +/− 0.13. For the same molecule, the “OD600 after 24 hours incubation” value ([2]; 1 % w/v isobutanol) was 0.16 +/− 0.01, the “growth yield of strain … compared to BY4743” value ([2]; 0.75% w/v isobutanol, 24 hours) was 2.7 fold and the “growth yield of strain … compared to BY4743” value ([2]; 0.825% w/v isobutanol, 24 hours) was 8.8 fold.
